One compound from publication PMC8954575, “Norepinephrine and Serotonin Can Modulate the Behavior of the Probiotic Enterococcus faecium NCIMB10415 towards the Host: Is a Putative Surface Sensor Involved?” (Microorganisms, 2022) can be followed below.

This test concerns the target T1, VicK (WalK) (Enterococcus faecium, UniProt Q3XYG9).
T1 construct: VicK (WalK) from a synthetic codon-optimized gene in pET-15b, N-terminal His-tag, purified from E. coli BL21 with DDM, RED-NHS labelled
T1 sequence (Q3XYG9 1-611): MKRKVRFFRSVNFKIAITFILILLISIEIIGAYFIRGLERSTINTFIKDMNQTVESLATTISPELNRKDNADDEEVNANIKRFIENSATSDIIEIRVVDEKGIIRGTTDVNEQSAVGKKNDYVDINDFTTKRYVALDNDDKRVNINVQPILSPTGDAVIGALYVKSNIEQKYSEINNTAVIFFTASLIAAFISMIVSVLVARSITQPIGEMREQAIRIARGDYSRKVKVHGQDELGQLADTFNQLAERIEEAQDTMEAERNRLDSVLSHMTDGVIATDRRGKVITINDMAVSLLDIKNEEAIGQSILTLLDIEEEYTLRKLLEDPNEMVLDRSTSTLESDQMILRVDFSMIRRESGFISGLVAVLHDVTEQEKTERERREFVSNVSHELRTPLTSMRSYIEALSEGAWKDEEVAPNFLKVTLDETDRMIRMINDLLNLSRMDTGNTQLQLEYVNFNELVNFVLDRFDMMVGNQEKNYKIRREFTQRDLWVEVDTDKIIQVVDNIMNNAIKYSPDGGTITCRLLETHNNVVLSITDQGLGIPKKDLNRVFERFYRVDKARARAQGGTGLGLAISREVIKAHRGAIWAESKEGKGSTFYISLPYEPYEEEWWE
Nature of the test: Micro-Scale Thermophoresis with purified labelled protein. It is filed as binding.

By Kd is commonly meant the free concentration of one partner at which half of the binding sites on the other are occupied at equilibrium, for simple one-to-one binding. A higher Kd goes with a looser complex. As to `NCCc1c[nH]c2ccc(O)cc12` [5HT, serotonin], the Kd amounted to 4.5 ± 0.07 mM.
